This is an account of results in ChEMBL document CHEMBL4052736, “Synthesis, antioxidant, antifungal, molecular docking and ADMET studies of some thiazolyl hydrazones” (Bioorg Med Chem Lett, 2017).

In brackets after ≈: the same amount, converted by molar mass.

Common to all, as to format: functional
Test [1] is described as follows: Antioxidant activity assessed as DPPH free radical scavenging activity at 20 ug/ml after 15 mins by spectrophotometric method. (DPPH is a stable violet radical that fades when it is reduced.)
The nature of test [2]: Antioxidant activity assessed as DPPH free radical scavenging activity at 40 ug/ml after 15 mins by spectrophotometric method.
A short description of test [3]: Antioxidant activity assessed as DPPH free radical scavenging activity at 100 ug/ml after 15 mins by spectrophotometric method.
Test [4] has as its system Candida albicans. The test is described as follows: Antifungal activity against Candida albicans assessed as zone of inhibition at 50 ug/ml measured after 24 hrs by well diffusion method. The settings on record: read-out: IZ. Background: A growth-free zone around the sample is the usual read-out of agar diffusion tests.
Test [5] relates to Aspergillus flavus. The test is described as follows: Antifungal activity against Aspergillus flavus assessed as zone of inhibition at 25 ug/ml measured after 24 hrs by well diffusion method. The settings on record: read-out: IZ.
A short description of test [6]: Antioxidant activity assessed as DPPH free radical scavenging activity measured after 15 mins by spectrophotometric method.
A short description of test [7]: Antioxidant activity assessed as H2O2 free radical scavenging activity at 20 ug/ml after 10 to 15 mins by spectrophotometric analysis.
Test [8] can be described thus: Antioxidant activity assessed as H2O2 free radical scavenging activity at 100 ug/ml after 10 to 15 mins by spectrophotometric analysis.
The test system of test [9] is Aspergillus flavus. Briefly: Antifungal activity against Aspergillus flavus after 24 hrs by well diffusion method.
Test [10] has as its system Aspergillus niger. Briefly: Antifungal activity against Aspergillus niger assessed as zone of inhibition at 50 ug/ml measured after 24 hrs by well diffusion method. The note with it: read-out: IZ.
Test [11] in a line: Antioxidant activity assessed as H2O2 free radical scavenging activity at 40 ug/ml after 10 to 15 mins by spectrophotometric analysis.
Test [12] has as its system Candida albicans. The test is described as follows: Antifungal activity against Candida albicans after 24 hrs by well diffusion method.
Test [13] can be described thus: Antioxidant activity assessed as H2O2 free radical scavenging activity by spectrophotometric analysis.
Test [14] can be described thus: Antioxidant activity assessed as DPPH free radical scavenging activity at 80 ug/ml after 15 mins by spectrophotometric method.
For test [15], the system named is Candida albicans. Briefly: Antifungal activity against Candida albicans assessed as zone of inhibition at 25 ug/ml measured after 24 hrs by well diffusion method. The note with it: read-out: IZ.
The test system of test [16] is Aspergillus niger. The test is described as follows: Antifungal activity against Aspergillus niger assessed as zone of inhibition at 25 ug/ml measured after 24 hrs by well diffusion method. The settings on record: read-out: IZ.
Test [17] concerns Candida albicans. The test is described as follows: Antifungal activity against Candida albicans assessed as zone of inhibition at 100 ug/ml measured after 24 hrs by well diffusion method. The settings on record: read-out: IZ.
Test [18] has as its system Aspergillus niger. The test is described as follows: Antifungal activity against Aspergillus niger assessed as zone of inhibition at 100 ug/ml measured after 24 hrs by well diffusion method. The note with it: read-out: IZ.
The test system of test [19] is Aspergillus flavus. Briefly: Antifungal activity against Aspergillus flavus assessed as zone of inhibition at 100 ug/ml measured after 24 hrs by well diffusion method. The note with it: read-out: IZ.
A short description of test [20]: Antioxidant activity assessed as DPPH free radical scavenging activity at 60 ug/ml after 15 mins by spectrophotometric method.
Test [21] can be described thus: Antioxidant activity assessed as H2O2 free radical scavenging activity at 60 ug/ml after 10 to 15 mins by spectrophotometric analysis.
A short description of test [22]: Antioxidant activity assessed as H2O2 free radical scavenging activity at 80 ug/ml after 10 to 15 mins by spectrophotometric analysis.
The subject of test [23] is Aspergillus flavus. The test is described as follows: Antifungal activity against Aspergillus flavus assessed as zone of inhibition at 50 ug/ml measured after 24 hrs by well diffusion method. The settings on record: read-out: IZ.

Turning to `O=C(O)Cc1ccccc1Nc1c(Cl)cccc1Cl`, the inhibition (usually the relative decrease from the control value, in per cent) in [1] turned out to be 97.1%.
On to `Fc1ccc(-c2csc(N/N=C/c3ccc(Cl)cc3Cl)n2)cc1`, for which the inhibition was found to be 93.3% in test [2]; 96% in [3]; 88.4% in [7]; 95.6% in test [8]; 90% in test [11]; 95.5% in test [14]. Besides, the inhibition in test [20] was 94.6%; in test [21] it was 92.4%; in test [1] it was 90.7%; in [22], 94%. Besides, the zone of inhibition at 50 µg/mL in the test on Candida albicans [4] turned out to be 11 mm; in the test with Aspergillus niger [10], 6 mm; in the test with Aspergillus flavus [23], 10 mm. The zone of inhibition at 25 µg/mL in the test with Aspergillus flavus [5] is 8 mm; with Candida albicans [15], 10 mm; in the test with Aspergillus niger [16], 6 mm. The half-inhibitory concentration (IC50) – broadly, the concentration at which inhibition is half-maximal – in test [6] was determined as 27.139 µg/mL (≈ 74.1 µM); in [13] it was 35.539 µg/mL (≈ 97 µM). The results for the MIC in the test on Aspergillus flavus [9] and against Candida albicans [12] were 12.5 µg/mL (≈ 34.1 µM) and 6.25 µg/mL (≈ 17.1 µM), respectively. In addition, the zone of inhibition at 100 µg/mL in the test with Candida albicans [17] is 13 mm; in the test with Aspergillus niger [18], 6 mm; with Aspergillus flavus [19], 12 mm.
Take `Clc1ccc(-c2csc(N/N=C/c3cccs3)n2)cc1`: the inhibition in [2] turned out to be 96%; in test [3], 97%; in test [7], 82.8%; in test [8], 87.1%; in [11], 83.2%; in [14], 96.6%. In addition, the inhibition in [20] came to 96.1%; in [21], 85.2%; in test [1], 94.4%; in [22], 86%. Further, the zone of inhibition at 50 µg/mL with Candida albicans [4] stood at 14 mm; in the test on Aspergillus niger [10], 6 mm; with Aspergillus flavus [23], 17 mm. The zone of inhibition at 25 µg/mL in the test with Aspergillus flavus [5] amounted to 8 mm; with Candida albicans [15], 11 mm; in the test with Aspergillus niger [16], 6 mm. In addition, the results for the IC50 in test [6] and in [13] were 26.335 µg/mL (≈ 82.3 µM) and 39.58 µg/mL (≈ 124 µM), respectively. The MIC (as a rule, the lowest concentration found to suppress growth) with Aspergillus flavus [9] stood at 12.5 µg/mL (≈ 39.1 µM); in the test with Candida albicans [12], 6.25 µg/mL (≈ 19.5 µM). The figures for the zone of inhibition at 100 µg/mL in the test with Candida albicans [17], with Aspergillus niger [18] and with Aspergillus flavus [19] were 18 mm, 8 mm and 20 mm, respectively.
With `O=C1O[C@H]([C@@H](O)CO)C(O)=C1O` [ASCORBIC ACID], the inhibition in test [2] is 94.6%; in test [3] it was 97%; in [7], 93.4%; in test [8] it was 97%; in test [11], 94.6%; in test [14] it was 96%. Further, the inhibition in test [20] was 95.5%; in test [21], 95.5%; in [1] it was 93.4%; in test [22] it was 96%. Also, the IC50 in [6] and in test [13] was 26.771 µg/mL (≈ 152 µM) in each case.
In the case of `Cc1ccc(-c2csc(N/N=C/c3cccs3)n2)cc1`, the inhibition in [2] was found to be 97%; in [3], 98.1%; in [7], 79.6%; in [8], 91%; in test [11], 82.8%; in test [14], 97.8%. Further, the inhibition came to 97.6% in test [20], 84.4% in [21], 90.9% in test [1] and 88.4% in test [22]. In addition, the results for the zone of inhibition at 50 µg/mL in the test on Candida albicans [4], with Aspergillus niger [10] and in the test with Aspergillus flavus [23] were 14 mm, 6 mm and 6 mm, respectively. Moreover, the zone of inhibition at 25 µg/mL stood at 6 mm with Aspergillus flavus [5], 13 mm in the test on Candida albicans [15] and 6 mm in the test on Aspergillus niger [16]. Moreover, the IC50 in test [6] came to 29.837 µg/mL (≈ 99.6 µM); in test [13], 35.933 µg/mL (≈ 120 µM). Moreover, in the test with Candida albicans [12], the MIC is 6.25 µg/mL (≈ 20.9 µM). Further, the zone of inhibition at 100 µg/mL stood at 15 mm in the test on Candida albicans [17], 6 mm in the test on Aspergillus niger [18] and 6 mm with Aspergillus flavus [19].
As to `COC(=O)c1cc(-c2csc(N/N=C/c3cccs3)n2)ccc1OCc1ccccc1`, the inhibition was 94.9% in test [2]; 96.3% in [3]; 79.6% in test [7]; 92.4% in test [8]; 82.8% in test [11]; 96% in test [14]. Also, the inhibition in test [20] came to 95.5%; in test [21], 84.4%; in test [1], 94.3%; in test [22], 87.6%. Further, the zone of inhibition at 50 µg/mL with Candida albicans [4] came out at 8 mm; with Aspergillus niger [10] it was 6 mm; in the test on Aspergillus flavus [23] it was 6 mm. In addition, the zone of inhibition at 25 µg/mL with Aspergillus flavus [5], in the test with Candida albicans [15] and in the test with Aspergillus niger [16] was 6 mm throughout. The 50% inhibitory concentration (IC50) in test [6] is 28.131 µg/mL (≈ 62.6 µM); in test [13] it was 29.212 µg/mL (≈ 65 µM). In the test with Candida albicans [12], this molecule displayed a minimum inhibitory concentration (MIC) of 25 µg/mL (≈ 55.6 µM). Also, the zone of inhibition at 100 µg/mL came out at 10 mm in the test with Candida albicans [17], 6 mm with Aspergillus niger [18] and 6 mm in the test on Aspergillus flavus [19].
In the case of `COc1ccc(-c2csc(N/N=C/c3ccc(Cl)cc3Cl)n2)cc1`, the inhibition in test [2] stood at 69.5%; in [3], 93.3%; in test [7] it was 78.1%; in [8], 87.5%; in [11], 79.7%; in [14], 90.6%. Moreover, the inhibition in [20] is 86.9%; in [21], 82.8%; in [1], 65.5%; in test [22], 84.2%. Also, the zone of inhibition at 50 µg/mL in the test with Candida albicans [4], in the test with Aspergillus niger [10] and with Aspergillus flavus [23] was 6 mm in each case. Moreover, the zone of inhibition at 25 µg/mL with Aspergillus flavus [5], in the test on Candida albicans [15] and with Aspergillus niger [16] was 6 mm in each case. The IC50 in test [6] was 34.966 µg/mL (≈ 92.4 µM); in [13] it was 40.405 µg/mL (≈ 107 µM). In addition, it took 25 µg/mL (≈ 66.1 µM) to inhibit growth against Candida albicans [12] (MIC). For the same molecule, the zone of inhibition at 100 µg/mL in the test on Candida albicans [17] was 7 mm; in the test on Aspergillus niger [18], 6 mm; with Aspergillus flavus [19], 6 mm.
For the molecule `COC(=O)c1cc(-c2csc(N/N=C/c3ccc(Cl)cc3Cl)n2)ccc1OCc1ccccc1`, the inhibition in [2] came to 37.2%; in test [3], 56.1%; in [7], 58.9%; in [8] it was 75%; in [11] it was 63.5%; in test [14], 45.5%. The inhibition in [20] was 41.9%; in test [21], 66.3%; in [1], 19.2%; in test [22] it was 71.8%. The zone of inhibition at 50 µg/mL in the test with Candida albicans [4] came out at 10 mm; in the test on Aspergillus niger [10] it was 6 mm; with Aspergillus flavus [23], 6 mm. In addition, the zone of inhibition at 25 µg/mL with Aspergillus flavus [5] was determined as 6 mm; in the test on Candida albicans [15] it was 12 mm; in the test with Aspergillus niger [16], 6 mm. The figures for the IC50 in [6] and in test [13] were 88.844 µg/mL (≈ 173 µM) and 57.873 µg/mL (≈ 113 µM), respectively. In the test with Candida albicans [12], this molecule showed an MIC of 6.25 µg/mL (≈ 12.2 µM). The zone of inhibition at 100 µg/mL was 13 mm with Candida albicans [17], 6 mm in the test on Aspergillus niger [18] and 14 mm with Aspergillus flavus [19].
